Columns and labels:
Pseudomonas aeruginosa = test: Antibacterial activity against Pseudomonas aeruginosa at 100 ug/100 uL after 24 hrs; assay type: functional
Bacillus subtilis = test: Antibacterial activity against Bacillus subtils at 100 ug/100 uL after 24 hrs; assay type: functional
Shigella flexneri = test: Antibacterial activity against Shigella flexneri at 100 ug/100 uL after 24 hrs; assay type: functional
Salmonella typhi = test: Antibacterial activity against Salmonella typhi at 100 ug/100 uL after 24 hrs; assay type: functional, Salmonella enterica subsp. enterica serovar Typhi
Staphylococcus aureus = test: Antibacterial activity against Staphylococcus aureus at 100 ug/100 uL after 24 hrs; assay type: functional
Escherichia coli = test: Antibacterial activity against Escherichia coli at 100 ug/100 uL after 24 hrs; assay type: functional

Row | Structure (SMILES) | inhibition zone (IZ) (Pseudomonas aeruginosa) | inhibition zone (IZ) (Bacillus subtilis) | inhibition zone (IZ) (Shigella flexneri) | inhibition zone (IZ) (Salmonella typhi) | inhibition zone (IZ) (Staphylococcus aureus) | inhibition zone (IZ) (Escherichia coli)
1 | C[C@H]1CC[C@@H](C(C)(C)O)C(=O)C2=C1CC[C@@H]2C | 13 mm | 11 mm | 10 mm |  |  | 
2 | C[C@@H]1C2=CC[C@H](C)[C@@H]2C[C@H](C(C)(C)O)C[C@@H]1O | 20 mm |  |  | 16 mm |  | 
3 | C[C@@H]1C2=C(C[C@H](C(C)(C)O)C[C@H]1O)[C@@H](C)[C@@H](O)C2 | 17 mm |  |  | 15 mm | 20 mm | 
4 | C[C@H]1CC[C@@H](C(C)(C)O)C[C@@H]2C1=CC(=O)[C@@H]2C | 13 mm | 11 mm |  |  |  | 
5 | C[C@@H]1[C@@H]2C[C@H](C(C)(C)O)CC[C@H](C)C2=C[C@@H]1O | 20 mm |  |  | 15 mm |  | 
6 | C[C@H]1CC[C@@H](C(C)(C)O)CC2=C1CC[C@@H]2C [GUAIOL] | 17 mm | 15 mm | 17 mm | 24 mm |  | 16 mm
7 | C[C@@H](O)[C@H]1C(=O)N2C(C(=O)O)=C(SCCNC=N)C[C@H]12 [IMIPENEM ANHYDROUS] | 24 mm | 33 mm | 27 mm | 25 mm | 33 mm | 30 mm

Reference: ChEMBL document CHEMBL1147125, “Microbial transformation of (-)-guaiol and antibacterial activity of its transformed products” (2007)
